Experimental findings from PubChem BioAssay AID248 (DTP/NCI, 2004) are described below.

This test relates to L1210 leukemia ip in BDF1 mice, survival T/C. The experiment in a line: NCI In Vivo Anticancer Drug Screen. Data for tumor model L1210 Leukemia (intraperitoneal) in B6D2F1 (BDF1) mice. The settings on record: endpoint: mean survival time, higher = longer survival. The method in brief: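 Transplanted-tumor mice were given test agent; controls received vehicle only. Survival readings from the two groups were divided (treated over control).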

[1] abbreviates: dose: 100.0 mg/kg/injection, schedule: Q04DX003 (ip), vehicle: Klucel (hydroxypropylcellulose) (HPC).
Setting [2] is: dose: 100.0 mg/kg/injection, schedule: Q04DX003 (ip), vehicle: saline with Tween-80.
Where [3] appears, read: dose: 200.0 mg/kg/injection, schedule: Q04DX003 (ip), vehicle: Klucel (hydroxypropylcellulose) (HPC).
Setting [4] is: dose: 200.0 mg/kg/injection, schedule: Q04DX003 (ip), vehicle: saline with Tween-80.
The mark [5] stands for this setting: dose: 400.0 mg/kg/injection, schedule: Q04DX003 (ip), vehicle: Klucel (hydroxypropylcellulose) (HPC).
[6] abbreviates: dose: 100.0 mg/kg/injection, schedule: Q04DX002 (ip), vehicle: Klucel (hydroxypropylcellulose) (HPC).
[7] abbreviates: dose: 200.0 mg/kg/injection, schedule: Q04DX002 (ip), vehicle: Klucel (hydroxypropylcellulose) (HPC).
Setting [8] is: dose: 400.0 mg/kg/injection, schedule: Q04DX002 (ip), vehicle: Klucel (hydroxypropylcellulose) (HPC).
Setting [9] is: dose: 50.0 mg/kg/injection, schedule: Q01DX001 (ip), vehicle: carboxymethylcellulose (CMC).
The mark [10] stands for this setting: dose: 100.0 mg/kg/injection, schedule: Q01DX001 (ip), vehicle: carboxymethylcellulose (CMC).
[11] abbreviates: dose: 200.0 mg/kg/injection, schedule: Q01DX001 (ip), vehicle: carboxymethylcellulose (CMC).
[12] abbreviates: dose: 400.0 mg/kg/injection, schedule: Q01DX001 (ip), vehicle: carboxymethylcellulose (CMC).
[13] abbreviates: dose: 100.0 mg/kg/injection, schedule: Q01DX001 (ip), vehicle: saline.
Setting [14] is: dose: 200.0 mg/kg/injection, schedule: Q01DX001 (ip), vehicle: saline.
Setting [15] is: dose: 400.0 mg/kg/injection, schedule: Q01DX001 (ip), vehicle: saline.
[16] abbreviates: dose: 100.0 mg/kg/injection, schedule: Q01DX009 (ip), vehicle: Klucel (hydroxypropylcellulose) (HPC).
Setting [17] is: dose: 200.0 mg/kg/injection, schedule: Q01DX009 (ip), vehicle: Klucel (hydroxypropylcellulose) (HPC).
Setting [18] is: dose: 400.0 mg/kg/injection, schedule: Q01DX009 (ip), vehicle: Klucel (hydroxypropylcellulose) (HPC).

The structures appear in SMILES notation. Several values for one entry are separate records, joined by “and”; a condition that tells them apart may be missing. Equal values may be shown once. Inconclusive results and toxic doses are left out.

With `O=C(O)C(Cl)c1ccccc1` (stereo not drawn), the T/C by setting is: (dose: 25.0 mg/kg/injection, schedule: Q01DX009 (ip), vehicle: gum acacia) 114 % of control; (dose: 50.0 mg/kg/injection, schedule: Q01DX009 (ip), vehicle: gum acacia) 109 % of control; (dose: 100.0 mg/kg/injection, schedule: Q01DX009 (ip), vehicle: gum acacia) 106 % of control; under setting [1], 92 % of control; under setting [2], 95 % of control; under setting [3], 93 % of control. For the same molecule, the T/C is, setting by setting: under setting [4], 101 % of control; under setting [5], 97 % of control; (dose: 400.0 mg/kg/injection, schedule: Q04DX003 (ip), vehicle: saline with Tween-80) 88 % of control.

In the case of `COc1ccc(N)cc1OC`, the T/C is 110 % of control (dose: 100.0 mg/kg/injection, schedule: Q04DX003 (ip), vehicle: saline); 105 % of control (dose: 200.0 mg/kg/injection, schedule: Q04DX003 (ip), vehicle: saline); 100 % of control (dose: 400.0 mg/kg/injection, schedule: Q04DX003 (ip), vehicle: saline).

`Cc1nc2cc(N=Cc3ccc(N(CCCl)CCCl)cc3F)ccc2n1C`: the T/C under setting [6] was 104 % of control, the T/C under setting [7] was 101 % of control and the T/C under setting [8] is 104 % of control.

Take `NC(=O)NC(=O)C(Cl)c1ccccc1` (stereo not drawn): the T/C was 103 % of control under setting [9], 97 % of control under setting [10], 103 % of control under setting [11] and 101 % of control under setting [12].

Regarding `CC1(C)C2CCC(CC(=O)O)C1C2` (stereo not drawn), the T/C is, setting by setting: under setting [2], 101 % of control; under setting [4], 101 % of control.

For the molecule `CCOC(=O)c1cc(C)nc2ccc(Br)cc12`, the T/C runs as follows: (dose: 100.0 mg/kg/injection, schedule: Q04DX002 (ip), vehicle: saline with Tween-80) 97 % of control; (dose: 200.0 mg/kg/injection, schedule: Q04DX002 (ip), vehicle: saline with Tween-80) 108 % of control; (dose: 400.0 mg/kg/injection, schedule: Q04DX002 (ip), vehicle: saline with Tween-80) 97 % of control.

With `Cc1ccc(NCCO)c2c(=O)c3ccccc3sc12`, the T/C was 101 % of control under setting [13], 101 % of control under setting [14] and 89 % of control under setting [15].

Consider `CCCCCCCCCCCCCCCNC1=C(C)C(=O)C(NCCCCCCCCCCCCCCC)=C(C)C1=O`, for which the T/C is 93 % of control under setting [10], 98 % of control under setting [11] and 89 % of control under setting [12].

With `CNCCOC(=O)c1cc([N+](=O)[O-])c(C)s1`, the T/C runs as follows: under setting [13], 94 % of control; under setting [14], 103 % of control; under setting [15], 100 % of control.

As for `COc1cccc2c1C(=O)c1c(O)c3c(c(O)c1C2=O)C[C@@](O)(/C(C)=N/N1CCCCC1)C[C@@H]3OC1CC(N)C(O)C(C)O1` (stereo partly drawn), the T/C reads like this: (dose: 0.12 mg/kg/injection, schedule: Q01DX009 (ip), vehicle: water) 114 % of control; (dose: 0.25 mg/kg/injection, schedule: Q01DX009 (ip), vehicle: water) 113 % of control; (dose: 0.25 mg/kg/injection, schedule: Q04DX003 (ip), vehicle: water) 110 % of control; (dose: 0.5 mg/kg/injection, schedule: Q01DX009 (ip), vehicle: water) 117 % of control; (dose: 0.5 mg/kg/injection, schedule: Q04DX003 (ip), vehicle: water) 118 % of control; (dose: 1.0 mg/kg/injection, schedule: Q04DX003 (ip), vehicle: water) 116 % of control. For the same molecule, the T/C (dose: 2.0 mg/kg/injection, schedule: Q01DX009 (ip), vehicle: water) is 119 % of control; the T/C (dose: 3.12 mg/kg/injection, schedule: Q01DX009 (ip), vehicle: saline with Tween-80) is 150 % of control; the T/C (dose: 4.0 mg/kg/injection, schedule: Q01DX009 (ip), vehicle: water) was 114 % of control and 88 % of control; the T/C (dose: 6.25 mg/kg/injection, schedule: Q01DX009 (ip), vehicle: saline with Tween-80) is 123 % of control; the T/C (dose: 16.0 mg/kg/injection, schedule: Q04DX003 (ip), vehicle: water) is 86 % of control.

As to `COc1ccc(OCCCO)cc1`, the T/C under setting [6] was 108 % of control, the T/C under setting [7] is 105 % of control and the T/C under setting [8] is 97 % of control.

On to `O=C1C(NC(=O)C(Cl)Cl)=C(N2CC2)C(=O)c2ccccc21`, for which the T/C under setting [1] is 98 % of control, the T/C under setting [3] is 102 % of control and the T/C under setting [5] was 98 % of control.

In the case of `O=C(O)/C(=C\c1cc2c(cc1[N+](=O)[O-])OCO2)c1cc2c(cc1Br)OCO2`, the T/C is, setting by setting: under setting [9], 97 % of control; under setting [10], 100 % of control; under setting [11], 103 % of control; under setting [12], 92 % of control.

With `Cn1c(=O)c2ccccc2c2cc(Br)ccc21`, the T/C runs as follows: (dose: 100.0 mg/kg/injection, schedule: Q04DX003 (ip), vehicle: other) 90 % of control; (dose: 200.0 mg/kg/injection, schedule: Q04DX003 (ip), vehicle: other) 92 % of control; (dose: 400.0 mg/kg/injection, schedule: Q04DX003 (ip), vehicle: other) 95 % of control.

For `c1ccc(-c2cc3ccccc3[nH]2)nc1`, the T/C under setting [1] was 95 % of control, the T/C under setting [3] was 93 % of control and the T/C under setting [5] is 93 % of control.

As for `CC(=O)CCCC(C)C1CCC2C3CC=C4CC(O)CCC4(C)C3CCC12C` (stereo not drawn), the T/C (dose: 75.0 mg/kg/injection, schedule: Q01DX009 (sc), vehicle: steriod suspending solution) is 99 % of control; the T/C (dose: 100.0 mg/kg/injection, schedule: Q01DX001 (sc), vehicle: steriod suspending solution) is 105 % of control; the T/C (dose: 150.0 mg/kg/injection, schedule: Q01DX009 (sc), vehicle: steriod suspending solution) was 94 % of control; the T/C (dose: 200.0 mg/kg/injection, schedule: Q01DX001 (sc), vehicle: steriod suspending solution) was 101 % of control; the T/C (dose: 300.0 mg/kg/injection, schedule: Q01DX009 (sc), vehicle: steriod suspending solution) was 92 % of control; the T/C (dose: 400.0 mg/kg/injection, schedule: Q01DX001 (sc), vehicle: steriod suspending solution) was 101 % of control.

As for `CC(=O)CC(C[N+](=O)[O-])c1ccccc1` (stereo not drawn), the T/C by setting is: under setting [16], 100 % of control; under setting [17], 100 % of control; under setting [18], 100 % of control.

Turning to `CCOc1ccc(CCOC(C)=O)cc1`, the T/C is 97 % of control under setting [6], 101 % of control under setting [7] and 101 % of control under setting [8].

For `CC(C)CC(NC(=O)C(C)NC(=O)OCc1ccccc1)C(=O)NC(CC(C)C)C(=O)NCC(=O)NC1CCC2(C)C(CCC3C2CCC2(C)C(NC(=O)CNC(=O)C(CC(C)C)NC(=O)C(CC(C)C)NC(=O)C(C)NC(=O)OCc4ccccc4)CCC32)C1` (stereo not drawn), the T/C is, setting by setting: (dose: 100.0 mg/kg/injection, schedule: Q01DX009 (sc), vehicle: steriod suspending solution) 89 % of control; (dose: 100.0 mg/kg/injection, schedule: Q04DX003 (sc), vehicle: steriod suspending solution) 89 % of control; (dose: 200.0 mg/kg/injection, schedule: Q01DX009 (sc), vehicle: steriod suspending solution) 89 % of control; (dose: 200.0 mg/kg/injection, schedule: Q04DX003 (sc), vehicle: steriod suspending solution) 103 % of control; (dose: 400.0 mg/kg/injection, schedule: Q01DX009 (sc), vehicle: steriod suspending solution) 94 % of control; (dose: 400.0 mg/kg/injection, schedule: Q04DX003 (sc), vehicle: steriod suspending solution) 92 % of control.

For the molecule `O=C(OC1COC(Br)C(OC(=O)c2ccccc2)C1OC(=O)c1ccccc1)c1ccccc1` (stereo not drawn), the T/C under setting [9] is 90 % of control; the T/C under setting [10] is 95 % of control and 97 % of control; the T/C under setting [16] was 97 % of control; the T/C under setting [1] is 106 % of control; the T/C under setting [11] is 93 % of control and 94 % of control; the T/C under setting [17] was 103 % of control. The T/C was 104 % of control under setting [3]; 98 % of control and 94 % of control under setting [12]; 98 % of control under setting [18]; 98 % of control under setting [5].
